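Compound exposure: 48 hours, 5 concentrations, 96-well plates. GI50 is the concentration that inhibits growth by half.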 Calls of active or inactive are those of the source. Rule as the data show it: active = GI50 up to about 1.1 µM and inactive = higher.
Assays:
Assay in all cases: DTP human tumour cell line panel, 48 h
786-0 = system: 786-0
A498 = system: A498
A549 = system: A549
ACHN = system: ACHN
BT-549 = system: BT-549
CAKI-1 = system: CAKI-1
CCRF-CEM = system: CCRF-CEM
COLO 205 = system: COLO 205
DLD-1 = system: DLD-1
DMS-114 = system: DMS-114
DMS-273 = system: DMS-273
DU-145 = system: DU-145
EKVX = system: EKVX
HCC 2998 = system: HCC 2998
HCT-116 = system: HCT-116
HCT-15 = system: HCT-15
HL-60 = system: HL-60
HOP-18 = system: HOP-18
HOP-62 = system: HOP-62
HOP-92 = system: HOP-92
HT-29 = system: HT-29
Hs-578T = system: Hs-578T
IGROV-1 = system: IGROV-1
K562 = system: K562
KM12 = system: KM12
LOX IMVI = system: LOX IMVI
LXFL 529 = system: LXFL 529
M14 = system: M14
M19-MEL = system: M19-MEL
MCF7 = system: MCF7
MDA-MB-231 = system: MDA-MB-231
MDA-MB-435 = system: MDA-MB-435
MDA-N = system: MDA-N
MOLT-4 = system: MOLT-4
Malme-3M = system: Malme-3M
NCI-H226 = system: NCI-H226
NCI-H23 = system: NCI-H23
NCI-H460 = system: NCI-H460
NCI-H522 = system: NCI-H522
NCI/ADR-RES = system: NCI/ADR-RES
OVCAR-3 = system: OVCAR-3
OVCAR-4 = system: OVCAR-4
OVCAR-5 = system: OVCAR-5
OVCAR-8 = system: OVCAR-8
PC-3 = system: PC-3
RPMI-8226 = system: RPMI-8226
RXF 393 = system: RXF 393
SF-268 = system: SF-268
SF-295 = system: SF-295
SF-539 = system: SF-539
SK-MEL-28 = system: SK-MEL-28
SK-MEL-2 = system: SK-MEL-2
SK-MEL-5 = system: SK-MEL-5
SK-OV-3 = system: SK-OV-3
SN12C = system: SN12C
SNB-19 = system: SNB-19
SNB-75 = system: SNB-75
SNB-78 = system: SNB-78
SR = system: SR
SW-620 = system: SW-620
T47D = system: T47D
TK-10 = system: TK-10
U-251 = system: U-251
UACC-257 = system: UACC-257
UACC-62 = system: UACC-62
UO-31 = system: UO-31
KM-20L2 = system: KM-20L2

Cc1ccc(S(=O)(=O)C2=c3ncccc3=C3C(=O)c4ccccc4C(=O)C32)cc1 (centres undefined)
GI50 (786-0): 28.4 µM (inactive)
GI50 (A498): 5.81 µM (inactive)
GI50 (A549): > 100 µM (inactive)
GI50 (ACHN): 51.3 µM (inactive)
GI50 (BT-549): 39.8 µM (inactive)
GI50 (CAKI-1): 64.6 µM (inactive)
GI50 (CCRF-CEM): > 95.1 µM (inactive)
GI50 (COLO 205): > 100 µM (inactive)
GI50 (DLD-1): < 0.01 µM (active)
GI50 (DMS-114): 65 µM (inactive)
GI50 (DMS-273): 26.5 µM (inactive)
GI50 (DU-145): > 100 µM (inactive)
GI50 (EKVX): 69 µM (inactive)
GI50 (HCC 2998): > 10 µM (inactive)
GI50 (HCT-116): 71.6 µM (inactive)
GI50 (HCT-15): > 10 µM
GI50 (HL-60): 99.5 µM (inactive)
GI50 (HOP-18): > 100 µM (inactive)
GI50 (HOP-62): 4.71 µM (inactive)
GI50 (HOP-92): 25.4 µM (inactive)
GI50 (HT-29): > 100 µM (inactive)
GI50 (Hs-578T): 22.6 µM (inactive)
GI50 (IGROV-1): 13.9 µM (inactive)
GI50 (K562): > 95.9 µM (inactive)
GI50 (KM12): > 9.95 µM (inactive)
GI50 (LOX IMVI): > 100 µM (inactive)
GI50 (LXFL 529): 83.8 µM (inactive)
GI50 (M14): > 100 µM (inactive)
GI50 (M19-MEL): < 0.01 µM (active)
GI50 (MCF7): > 71.9 µM (inactive)
GI50 (MDA-MB-231): 29.6 µM (inactive)
GI50 (MDA-MB-435): > 100 µM (inactive)
GI50 (MDA-N): > 100 µM (inactive)
GI50 (MOLT-4): > 100 µM (inactive)
GI50 (Malme-3M): 53.7 µM (inactive)
GI50 (NCI-H226): > 29.9 µM (inactive)
GI50 (NCI-H23): 64 µM (inactive)
GI50 (NCI-H460): 7.11 µM (inactive)
GI50 (NCI-H522): 4.38 µM (inactive)
GI50 (NCI/ADR-RES): 49.3 µM (inactive)
GI50 (OVCAR-3): 55.8 µM (inactive)
GI50 (OVCAR-4): 15.8 µM (inactive)
GI50 (OVCAR-5): > 10 µM (inactive)
GI50 (OVCAR-8): 39.4 µM (inactive)
GI50 (PC-3): 61.4 µM (inactive)
GI50 (RPMI-8226): > 100 µM (inactive)
GI50 (RXF 393): 16 µM (inactive)
GI50 (SF-268): 46.7 µM (inactive)
GI50 (SF-295): 43.1 µM (inactive)
GI50 (SF-539): 2.75 µM (inactive)
GI50 (SK-MEL-28): > 100 µM (inactive)
GI50 (SK-MEL-2): 3.13 µM (inactive)
GI50 (SK-MEL-5): 2.79 µM (inactive)
GI50 (SK-OV-3): 38.2 µM (inactive)
GI50 (SN12C): > 100 µM (inactive)
GI50 (SNB-19): 48.9 µM (inactive)
GI50 (SNB-75): 52.6 µM (inactive)
GI50 (SNB-78): > 100 µM (inactive)
GI50 (SR): > 100 µM (inactive)
GI50 (SW-620): > 100 µM (inactive)
GI50 (T47D): 68.4 µM (inactive)
GI50 (TK-10): 8.65 µM (inactive)
GI50 (U-251): 57.7 µM (inactive)
GI50 (UACC-257): 66.7 µM (inactive)
GI50 (UACC-62): 23 µM (inactive)
GI50 (UO-31): > 72.1 µM (inactive)

CN(C)CCNC(=O)c1cccc2c1nc(-c1ccncc1)c1ccccc12
GI50 (786-0): 3.66 µM (inactive)
GI50 (A498): 1.15 µM (inactive)
GI50 (A549): 0.552 µM (active)
GI50 (ACHN): 1.65 µM (inactive)
GI50 (CAKI-1): 1.81 µM (inactive)
GI50 (CCRF-CEM): 2.4 µM (inactive)
GI50 (COLO 205): 1.61 µM (inactive)
GI50 (DLD-1): 2.38 µM (inactive)
GI50 (DMS-114): 2.84 µM (inactive)
GI50 (DMS-273): 0.767 µM (active)
GI50 (EKVX): 2.47 µM (inactive)
GI50 (HCC 2998): 2.6 µM (inactive)
GI50 (HCT-116): 1.46 µM (inactive)
GI50 (HCT-15): 1.99 µM
GI50 (HL-60): 1.36 µM (inactive)
GI50 (HOP-18): 9.91 µM (inactive)
GI50 (HOP-62): 3.78 µM (inactive)
GI50 (HOP-92): 2.09 µM (inactive)
GI50 (HT-29): 3.32 µM (inactive)
GI50 (IGROV-1): 1.02 µM (active)
GI50 (K562): 3.14 µM (inactive)
GI50 (KM12): 5.28 µM (inactive)
GI50 (LOX IMVI): 1.35 µM (inactive)
GI50 (M14): 4.83 µM (inactive)
GI50 (M19-MEL): 2.82 µM (inactive)
GI50 (MOLT-4): 0.0316 µM (active)
GI50 (NCI-H226): 1.95 µM (inactive)
GI50 (NCI-H23): 3.07 µM (inactive)
GI50 (NCI-H460): 0.0408 µM (active)
GI50 (OVCAR-3): 5.35 µM (inactive)
GI50 (OVCAR-4): 4.01 µM (inactive)
GI50 (OVCAR-5): 4.88 µM (inactive)
GI50 (OVCAR-8): 3.06 µM (inactive)
GI50 (RXF 393): 2.3 µM (inactive)
GI50 (SF-268): 5.53 µM (inactive)
GI50 (SF-295): 2.85 µM (inactive)
GI50 (SF-539): 2.03 µM (inactive)
GI50 (SK-MEL-28): 5.15 µM (inactive)
GI50 (SK-MEL-2): 6.12 µM (inactive)
GI50 (SK-MEL-5): 1.81 µM (inactive)
GI50 (SK-OV-3): 5.71 µM (inactive)
GI50 (SN12C): 1.58 µM (inactive)
GI50 (SNB-19): 3.94 µM (inactive)
GI50 (SNB-75): 3.36 µM (inactive)
GI50 (SNB-78): 5.9 µM (inactive)
GI50 (SW-620): 1.11 µM (active)
GI50 (TK-10): 2.21 µM (inactive)
GI50 (U-251): 2.34 µM (inactive)
GI50 (UACC-257): 3.01 µM (inactive)
GI50 (UACC-62): 1.88 µM (inactive)
GI50 (UO-31): 1.63 µM (inactive)

O=C(CCC(=O)N/N=C/c1ccccc1O)N/N=C/c1ccccc1O
GI50 (786-0): > 100 µM (inactive)
GI50 (A549): > 100 µM (inactive)
GI50 (CAKI-1): > 100 µM (inactive)
GI50 (COLO 205): > 100 µM (inactive)
GI50 (DMS-114): > 100 µM (inactive)
GI50 (DMS-273): > 100 µM (inactive)
GI50 (EKVX): 20.9 µM (inactive)
GI50 (HCC 2998): > 100 µM (inactive)
GI50 (HCT-116): 80.7 µM (inactive)
GI50 (HCT-15): 51.4 µM
GI50 (HOP-92): 27.9 µM (inactive)
GI50 (HT-29): > 100 µM (inactive)
GI50 (IGROV-1): 33.9 µM (inactive)
GI50 (K562): > 100 µM (inactive)
GI50 (KM-20L2): > 100 µM (inactive)
GI50 (KM12): > 100 µM (inactive)
GI50 (LXFL 529): > 100 µM (inactive)
GI50 (M19-MEL): > 100 µM (inactive)
GI50 (MOLT-4): > 100 µM (inactive)
GI50 (Malme-3M): > 100 µM (inactive)
GI50 (NCI-H226): > 100 µM (inactive)
GI50 (NCI-H23): 94.6 µM (inactive)
GI50 (NCI-H522): 53.2 µM (inactive)
GI50 (OVCAR-3): 42.1 µM (inactive)
GI50 (OVCAR-4): > 100 µM (inactive)
GI50 (OVCAR-5): > 100 µM (inactive)
GI50 (OVCAR-8): 92 µM (inactive)
GI50 (RPMI-8226): > 100 µM (inactive)
GI50 (RXF 393): 16 µM (inactive)
GI50 (SF-268): 18.8 µM (inactive)
GI50 (SF-295): 32.5 µM (inactive)
GI50 (SF-539): > 10 µM (inactive)
GI50 (SK-MEL-28): 41.1 µM (inactive)
GI50 (SK-MEL-2): 17.5 µM (inactive)
GI50 (SK-MEL-5): > 100 µM (inactive)
GI50 (SK-OV-3): 18.9 µM (inactive)
GI50 (SN12C): > 100 µM (inactive)
GI50 (SNB-19): 56.6 µM (inactive)
GI50 (SNB-75): 12.9 µM (inactive)
GI50 (SNB-78): 51.3 µM (inactive)
GI50 (SR): > 100 µM (inactive)
GI50 (SW-620): > 100 µM (inactive)
GI50 (TK-10): 29.4 µM (inactive)
GI50 (U-251): 32.7 µM (inactive)
GI50 (UACC-257): > 100 µM (inactive)
GI50 (UACC-62): 41.8 µM (inactive)
GI50 (UO-31): > 100 µM (inactive)

— ChEMBL document CHEMBL1201862, “PubChem BioAssay data set” (2004)
